Peptide text beside a SMILES is read from it.
How the values were obtained:
brain [1] = assay: Antiprion activity against Scrapie prion protein-infected mouse brain cells assessed as remaining PrP-res level at 100 uM after 4 days by Western blotting relative to control; assay type: tissue-based
[2] = molecular target: Major prion protein (Mus musculus) (UniProt P04925); assay: Inhibition of mouse recombinant PrP interaction with scrapie mouse brain PrP-res assessed as PrP-res formation at 100 uM after 30 mins by aggregation assay relative to control
[3] = molecular target: Major prion protein (Mus musculus) (UniProt P04925); assay: Inhibition of manganese-induced aggregation in mouse recombinant PrP assessed as PrP-res formation at 100 uM after 30 mins relative to control; design: scale not given: the % may be the effect or the level left
brain [4] = assay: Antiprion activity against Scrapie prion protein-infected mouse brain cells assessed as remaining PrP-res level at 10 uM after 4 days by Western blotting relative to control; assay type: tissue-based

Chain of Major prion protein (Mus musculus) (P04925 whole entry): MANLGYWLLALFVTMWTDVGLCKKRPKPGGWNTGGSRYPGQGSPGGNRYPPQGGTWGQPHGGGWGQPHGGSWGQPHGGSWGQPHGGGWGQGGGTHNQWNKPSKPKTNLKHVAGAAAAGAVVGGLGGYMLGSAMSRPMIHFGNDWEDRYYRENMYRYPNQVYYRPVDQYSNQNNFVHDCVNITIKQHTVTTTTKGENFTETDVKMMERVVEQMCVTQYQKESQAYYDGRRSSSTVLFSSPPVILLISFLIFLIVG

| Compound | Activity (brain [1]) [%] | PrP-res formation relative to control [2] [%] | Activity [3] [%] | Remaining PrP-res level (brain [4]) [%] |
| --- | --- | --- | --- | --- |
| CC(C)[C@H](NC(=O)[C@@H](NC(=O)[C@H](C)NC(=O)CNC(=O)[C@@H]1CCCN1C(=O)[C@H](C)NC(=O)[C@H](C)NC(=O)[C@H](C)NC(=O)CNC(=O)[C@H](C)NC(=O)[C@@H](C)N)C(C)C)C(N)=O | 5 | 52 | 52 | 73 |
| CC(C)[C@H](NC(=O)[C@@H](NC(=O)[C@H](C)NC(=O)CNC(=O)[C@H](C)NC(=O)[C@H](C)NC(=O)[C@H](C)NC(=O)[C@H](C)NC(=O)[C@@H]1CCCN1C(=O)[C@H](C)NC(=O)[C@@H](C)N)C(C)C)C(N)=O | 14 | 22 | 22 | 131 |
| CC(C)[C@H](NC(=O)[C@H](C)NC(=O)CNC(=O)[C@@H]1CCCN1C(=O)[C@H](C)NC(=O)[C@H](C)NC(=O)[C@H](C)NC(=O)CNC(=O)[C@H](C)NC(=O)[C@@H](C)N)C(N)=O | 129 |  | 54 |  |
| CC(C)[C@H](NC(=O)[C@H](C)NC(=O)CNC(=O)[C@H](C)NC(=O)[C@H](C)NC(=O)[C@H](C)NC(=O)[C@H](C)NC(=O)[C@@H]1CCCN1C(=O)[C@H](C)NC(=O)[C@@H](C)N)C(N)=O | 148 |  | 28 |  |
| C[C@H](NC(=O)CNC(=O)[C@@H]1CCCN1C(=O)[C@H](C)NC(=O)[C@H](C)NC(=O)[C@H](C)NC(=O)CNC(=O)[C@@H]1CCCN1C(=O)[C@@H](C)N)C(N)=O | 7 |  | 89 |  |
| C[C@H](NC(=O)CNC(=O)[C@@H]1CCCN1C(=O)[C@H](C)NC(=O)[C@H](C)NC(=O)[C@H](C)NC(=O)CNC(=O)[C@H](C)NC(=O)[C@@H](C)N)C(N)=O | 81 |  | 27 |  |
| C[C@H](NC(=O)CNC(=O)[C@@H]1CCCN1C(=O)[C@H](C)NC(=O)[C@H](C)NC(=O)[C@H](C)NC(=O)[C@@H]1CCCN1C(=O)[C@H](C)NC(=O)[C@@H](C)N)C(N)=O | 33 |  | 85 |  |
| C[C@H](NC(=O)CNC(=O)[C@H](C)NC(=O)[C@@H](C)N)C(=O)N[C@@H](C)C(=O)N[C@@H](C)C(=O)N1CCC[C@H]1C(=O)NCC(=O)N1CCC[C@H]1C(N)=O | 88 |  | 27 |  |
| C[C@H](NC(=O)CNC(=O)[C@H](C)NC(=O)[C@@H](C)N)C(=O)N[C@@H](C)C(=O)N[C@@H](C)C(=O)N1CCC[C@H]1C(=O)NCC(N)=O | 108 | 2 | 2 |  |
| C[C@H](NC(=O)CNC(=O)[C@H](C)NC(=O)[C@@H](C)N)C(=O)N[C@@H](C)C(=O)N[C@@H](C)C(=O)N1CCC[C@H]1C(N)=O | 206 |  |  |  |
| C[C@H](NC(=O)CNC(=O)[C@H](C)NC(=O)[C@H](C)NC(=O)[C@H](C)NC(=O)[C@H](C)NC(=O)[C@@H]1CCCN1C(=O)[C@H](C)NC(=O)[C@@H](C)N)C(N)=O | 66 |  | 103 |  |
| C[C@H](NC(=O)[C@@H](C)N)C(=O)N1CCC[C@H]1C(=O)NCC(N)=O | 100 |  | 88 |  |
| C[C@H](NC(=O)[C@@H]1CCCN1C(=O)[C@@H](C)N)C(N)=O | 45 |  | 148 |  |
| C[C@H](NC(=O)[C@H](C)NC(=O)[C@H](C)NC(=O)[C@H](C)NC(=O)[C@@H]1CCCN1C(=O)[C@H](C)NC(=O)[C@@H](C)N)C(=O)NCC(N)=O | 128 | 46 | 46 |  |
| C[C@H](NC(=O)[C@H](C)NC(=O)[C@H](C)NC(=O)[C@H](C)NC(=O)[C@@H]1CCCN1C(=O)[C@H](C)NC(=O)[C@@H](C)N)C(N)=O | 195 | 2 | 2 |  |
| C[C@H](NC(=O)[C@@H]1CCCN1C(=O)[C@H](C)NC(=O)CN)C(=O)O (H-GAPA-OH) | 47 |  | 266 |  |
| C[C@H](NC(=O)CN)C(=O)N1CCC[C@H]1C(N)=O (H-Gly-Ala-Pro-NH2) | 32 |  | 111 |  |
| NCC(=O)N1CCC[C@H]1C(=O)N1CCC[C@H]1C(N)=O (H-Gly-Pro-Pro-NH2) | 25 |  | 81 |  |
| C[C@H](NC(=O)[C@H](C)NC(=O)[C@@H]1CCCN1)C(N)=O (H-Pro-Ala-Ala-NH2) | 51 |  | 88 |  |
| C[C@H](NC(=O)[C@@H]1CCCN1)C(=O)N1CCC[C@H]1C(N)=O (H-Pro-Ala-Pro-NH2) | 156 |  | 59 |  |

| Compound | Activity (brain [1]) [%] | PrP-res formation relative to control [2] [%] | Activity [3] [%] | Remaining PrP-res level (brain [4]) [%] |
| --- | --- | --- | --- | --- |
| C[C@H](NC(=O)[C@@H]1CCCN1C(=O)[C@@H]1CCCN1)C(N)=O (H-Pro-Pro-Ala-NH2) | 10 |  | 125 |  |
| NC(=O)CNC(=O)[C@@H]1CCCN1C(=O)[C@@H]1CCCN1 (H-Pro-Pro-Gly-NH2) | 48 |  | 96 |  |
| H-AAGAAAA-NH2 | 65 |  |  |  |
| H-AAGAAAAG-NH2 | 108 | 23 | 23 |  |
| H-AAGAAAAGA-NH2 | 56 |  | 76 |  |
| H-AAGAAAAGAV-NH2 | 133 |  | 57 |  |
| H-AAGAAAAGAVV-NH2 | 34 | 17 | 17 | 200 |
| H-GAAAPG-NH2 | 124 |  | 111 |  |
| H-GAAAPP-NH2 | 30 |  | 148 |  |
| H-GAAPPG-NH2 | 5 |  | 240 |  |
| H-GAPAPG-NH2 | 52 |  | 85 |  |
| H-GPAAPG-NH2 | 261 |  | 48 |  |
| H-HAAGAAAAGA-NH2 | 39 |  | 59 |  |
| H-HAAGAAAAGAV-NH2 | 74 |  | 34 |  |
| H-HAAGAAAPGA-NH2 | 183 |  | 28 |  |
| H-HAAGAAAPGAV-NH2 | 32 |  | 64 |  |
| H-HAAPAAAAGA-NH2 | 151 |  | 93 |  |
| H-HAAPAAAAGAV-NH2 | 225 |  | 38 |  |
| H-HPAGAAAAGA-NH2 | 23 | 11 | 11 |  |
| H-HPAGAAAAGAV-NH2 | 135 |  | 74 |  |

| Compound | Activity (brain [1]) [%] | PrP-res formation relative to control [2] [%] | Activity [3] [%] | Remaining PrP-res level (brain [4]) [%] |
| --- | --- | --- | --- | --- |
| H-KHAAGAAAAGA-NH2 | 59 |  | 102 |  |
| H-KHAAGAAAAGAVV-NH2 | 93 |  | 112 |  |
| H-KHAAGAAAPGA-NH2 | 44 |  | 52 |  |
| H-KHAAGAAAPGAVV-NH2 | 7 |  | 86 | 108 |
| H-KHAAPAAAAGA-NH2 | 70 |  | 73 |  |
| H-KHAAPAAAAGAVV-NH2 | 68 | 44 | 44 |  |
| H-KHPAGAAAAGA-NH2 | 83 |  | 19 |  |
| H-KHPAGAAAAGAVV-NH2 | 68 |  | 73 |  |
| H-MAGAAAAGA-NH2 | 89 |  | 104 |  |
| H-MLGSAPSR-NH2 | 61 |  | 1 |  |
| H-PAGAAAA-NH2 | 71 |  |  |  |
| H-PAGAAAAG-NH2 | 10 |  | 130 | 158 |
| H-PAGAAAAGA-NH2 | 100 |  | 71 |  |
| H-PAGAAAAGAV-NH2 | 112 |  | 77 |  |
| H-PAGAAAAGAVV-NH2 | 132 | 28 | 28 |  |
| H-PAGAAAPGA-NH2 | 79 |  | 56 |  |
| H-PLGSAMSR-NH2 | 45 |  | 11 |  |
| H-VAGAAAAGA-NH2 | 93 |  | 84 |  |
